Key:
[1] = Acute toxicity; details: in vivo
Text: Acute toxicity of the compound represented by formula (I) was examined and it has been confirmed that this is a compound having high safety.

[2] = 60 g/day for gait disturbance of cerebellar degeneration; Movement Disorder, 2003, 18, pp. 457-459; cited from earlier work
[3] = test system: aphasia after cerebrovascular accidents; details: acute phase after cerebrovascular accidents, combination use of speech therapy; cited from earlier work

NC(=O)CN1CCCC1=O [piracetam, 2-oxo-1-pyrrolidineacetamide]
acute toxicity [1]: high safety | safety [2]: no problem on its safety | therapeutic effect on aphasia [3]: therapeutic effect of piracetam is found

— patent US7479506B2, “Agent or method for treating severe aphasia in cerebrovascular accident chronic stage” (priority 2003, dated 2009)
